Legend:
Format in all cases: in vivo, human
[1] = test system: diarrhea-predominant IBS subjects; assay: Study S241.3.006: IBS-QOL; details: for Percentage of Subjects Who Worsened from Baseline: IBS-QOL Overall Score: S241.3.006, 2 mg TID, observed value
Description: Studies S24 1.3.OO6, S24 1.3.0 1 1, and S24 1.3.009 used the following efficacy measurements: • The subjects answered the following three questions with “yes” or “no” using a phone diary at the end of each week: • a) During the last week, did you experience adequate relief of your IBS symptoms, such as abdominal pain, abdominal discomfort, abnormal bowel habits? • b) During the last week, did you experience adequate relief of your abdominal pain and/or discomfort? • c) During the last week, did you experience adequate relief of your abnormal bowel habits? • The subjects rated the following symptoms using the phone diary at the end of each day: • abdominal pain/discomfort (five-point scale); • stool consistency (seven-point Bristol Stool Scale); • stool frequency (number of bowel movements each day); • urgency (five-point scale); • straining (yes or no); • feeling of incomplete defecation (yes or no); • bloating or feeling of abdominal distension (five-point scale). • In Studies S241 A006 and S241.3.009, subjects completed the IBS-QOL Survey at Baseline (Day 1) and at the end of treatment. In Study S24 1.3.0 1 1, subjects completed the IBS-QOL Survey at Baseline (Day 1), at the end of the three-month treatment period, and at the end of rerandomized treatment.
Other secondary efficacy parameters for all three studies included: • Responder rate for the weekly diary questions on adequate relief at each month, where a responder for a month (monthly responder) was defined as a subject who answered the weekly question with “yes” at least twice for that month. The responder rate was the percentage of responders within a treatment group. The all-month responder rate for the weekly diary questions on adequate relief was also evaluated, where an all-month responder was defined as a subject who answered the weekly question with “yes” at least twice for each month. The all-month responder rate was the percentage of all-month responders within a treatment group; • Adequate relief rate for the weekly diary questions was calculated for each subject as the number of weekly assessments with adequate relief (“yes”) divided by the total number of weekly assessments; • Percentage of subjects with adequate relief for the weekly diary questions at each week; • Daily diary questions regarding abdominal pain/discomfort (five-point scale), stool consistency (seven-point scale), stool frequency (number of bowel movements each day), straining (yes or no), urgency (five-point scale), feeling of incomplete evacuation (yes or no), and bloating or feeling of abdominal distention (five-point scale); • QOL data assessed by the IBS-QOL questionnaire; and • Question to determine the interruption of activities.

[2] = test system: healthy subjects; assay: Study S.241.2.106: colonic motility index; details: for colonic motility index, Comparison to Placebo: Ratio: ANOVA; for colonic motility index: arith. mean
Method: The effect of cilansetron on colonic motility was evaluated in a randomized, double-blind, placebo-controlled, 3-way crossover study in 12 healthy male and female subjects (ITT population), aged 24-34 years. Subjects received cilansetron 4 mg, cilansetron 8 mg, or placebo orally TID for 7 days during each of the treatment periods, with a 7-day washout between periods. Colonic motility assessments were done on the last day of each treatment period, around the time of the last dose. Subjects were fasted for 12 hours prior to start of colonic assessments. Colonic motor activity was recorded from 30 minutes prior to dosing until 240 minutes postdose. A high-calorie meal was administered at 1 hour postdose and 1 mg neostigmine was administered intramuscularly at 2.5 hours postdose. The main objective of the assessments was to establish whether cilansetron was able to reduce colonic motor activity after meal ingestion and after neostigmine injection. The main parameter of interest was the motility index, which was measured in intervals of ten minutes for a total period of 150 minutes postprandially. The time intervals of major interest were the 30-minute interval after start of meal ingestion (91-120 minutes) and the 30-minute interval after neostigmine injection (181-210 minutes). An ANOVA was used to compare the motility indices between treatments.

[3] = test system: healthy subjects; assay: Study K.241.5009: esophageal motility; details: mean
Method: The effect of cilansetron on esophageal motility was evaluated in a randomized, double-blind, placebo-controlled, 3-way crossover study in 12 male healthy subjects (ITT population), aged 32-62 years. Subjects received placebo, cilansetron 4 mg, or cilansetron 8 mg administered orally TID for 7 days during each of the 3 periods, with a 7-day washout between periods. Before conduct of esophageal distension tests using an intraesophageal balloon, primary esophageal motility was induced by at least 5 wet swallows of 5 mL water and […] manometrically registered. Amplitude and duration of esophageal contractions were measured in 3 channels proximal and distal to the balloon and the velocity of propagation of contractions was […] measured over the 2 inter-channel intervals. […] For velocity of propagation, a slight trend towards […] reduced velocity with increasing cilansetron dose was found in the 7-2 cm interval but not in the 17-7 cm interval, and there was no effects seen on onset in either interval.

[4] = After Meal Ingestion, 4 mg TID oral 7 days
[5] = After Meal Ingestion, 8 mg TID oral 7 days
[6] = After Neostigmine, 4 mg TID oral 7 days
[7] = After Neostigmine, 8 mg TID oral 7 days
[8] = channel 2 cm, 4 mg TID oral 7 days
[9] = channel 2 cm, 8 mg TID oral 7 days
[10] = channel 7 cm, 4 mg TID oral 7 days
[11] = channel 7 cm, 8 mg TID oral 7 days
[12] = channel 17 cm, 4 mg TID oral 7 days
[13] = channel 17 cm, 8 mg TID oral 7 days
[14] = inter-channel interval 7-2 cm, 4 mg TID oral 7 days
[15] = inter-channel interval 7-2 cm, 8 mg TID oral 7 days
[16] = inter-channel interval 17-7 cm, 4 mg TID oral 7 days
[17] = inter-channel interval 17-7 cm, 8 mg TID oral 7 days

## Cc1nccn1C[C@H]1CCc2c(c3cccc4c3n2CCC4)C1=O [Cilansetron, (R)-(−)-4,5,6,8,9,10-hexahydro-10-[(2-methyl-1H-imidazol-1-yl)methyl]-11H-pyrido-[3,2,1-jk]-carbazol-11-one]
[1]; Month 3
  Subjects worsened from Baseline, IBS-QOL Overall Score: 5%
  Percentage of Subjects Who Worsened from Baseline: IBS-QOL Overall Score: 5%
[1]; Endpoint (last post-Baseline overall score)
  Percentage of Subjects Who Worsened from Baseline: IBS-QOL Overall Score: 6%
[1]; vs placebo
  IBS-QOL body image, treatment difference: 7.43
  IBS-QOL dysphoria, treatment difference: 7.34
  IBS-QOL food avoidance, treatment difference: 8.92
  IBS-QOL health worry, treatment difference: 3.21
  IBS-QOL interference with activity, treatment difference: 9.73
  IBS-QOL overall score, treatment difference in mean change from Baseline at Endpoint: 7.37
  IBS-QOL relationships, treatment difference: 5.19
  IBS-QOL sexual, treatment difference: 5.64
  IBS-QOL social reaction, treatment difference: 6.19
[2]; [4]
  colonic motility index, Comparison to Placebo: Ratio: 101%
  colonic motility index: 20358
[2]; [5]
  colonic motility index, Comparison to Placebo: Ratio: 106%
  colonic motility index: 23478
[2]; [6]
  colonic motility index, Comparison to Placebo: Ratio: 192%
  colonic motility index: 50580
[2]; [7]
  colonic motility index, Comparison to Placebo: Ratio: 162%
  colonic motility index: 48691
[3]; [8]
  Contraction Force Amplitude, Absolute Values: 88.3 mmHg
  Contraction Force Amplitude, Change from Placebo: −4.2 mmHg
  Contraction Force Duration, Absolute Values: 4.5 s
  Contraction Force Duration, Change from Placebo: -0.0 s
[3]; [9]
  Contraction Force Amplitude, Absolute Values: 85.5 mmHg
  Contraction Force Amplitude, Change from Placebo: −7.1 mmHg
  Contraction Force Duration, Absolute Values: 5.0 s
  Contraction Force Duration, Change from Placebo: 0.4 s
[3]; [10]
  Contraction Force Amplitude, Absolute Values: 84.7 mmHg
  Contraction Force Amplitude, Change from Placebo: −3.6 mmHg
  Contraction Force Duration, Absolute Values: 3.7 s
  Contraction Force Duration, Change from Placebo: -0.5 s
[3]; [11]
  Contraction Force Amplitude, Absolute Values: 85.4 mmHg
  Contraction Force Amplitude, Change from Placebo: −2.8 mmHg
  Contraction Force Duration, Absolute Values: 4.0 s
  Contraction Force Duration, Change from Placebo: -0.2 s
[3]; [12]
  Contraction Force Amplitude, Absolute Values: 61.5 mmHg
  Contraction Force Amplitude, Change from Placebo: −5.3 mmHg
  Contraction Force Duration, Absolute Values: 3.0 s
  Contraction Force Duration, Change from Placebo: 0.1 s
[3]; [13]
  Contraction Force Amplitude, Absolute Values: 59.3 mmHg
  Contraction Force Amplitude, Change from Placebo: −7.5 mmHg
  Contraction Force Duration, Absolute Values: 2.9 s
  Contraction Force Duration, Change from Placebo: -0.0 s
[3]; [14]
  Velocity of Propagation, Onset, Absolute Values: 3.7 cm/sec
  Velocity of Propagation, Onset, Change from Placebo: 0.4 cm/sec
  Velocity of Propagation, Peak, Absolute Values: 3.6 cm/sec
  Velocity of Propagation, Peak, Change from Placebo: −0.2 cm/sec
[3]; [15]
  Velocity of Propagation, Onset, Absolute Values: 3.5 cm/sec
  Velocity of Propagation, Onset, Change from Placebo: 0.2 cm/sec
  Velocity of Propagation, Peak, Absolute Values: 3.3 cm/sec
  Velocity of Propagation, Peak, Change from Placebo: −0.5 cm/sec
[3]; [16]
  Velocity of Propagation, Onset, Absolute Values: 2.3 cm/sec
  Velocity of Propagation, Onset, Change from Placebo: 0.0 cm/sec
  Velocity of Propagation, Peak, Absolute Values: 2.8 cm/sec
  Velocity of Propagation, Peak, Change from Placebo: 0.1 cm/sec
[3]; [17]
  Velocity of Propagation, Onset, Absolute Values: 2.3 cm/sec
  Velocity of Propagation, Onset, Change from Placebo: −0.0 cm/sec
  Velocity of Propagation, Peak, Absolute Values: 2.7 cm/sec
  Velocity of Propagation, Peak, Change from Placebo: 0.0 cm/sec
